{"source": "patent US20140030808A1", "about": "“Method for Cellular RNA Expression” (BIONTECH AG, priority 2010, published 2014)", "key": {"[1]": {"test_system": "immature dendritic cells (iDCs)", "format": "cell-based, human", "conditions": "0.5 μM to 2 μM"}, "[2]": {"test_system": "immature dendritic cells (iDCs)", "test": "GFP expression by flow cytometry in iDCs electroporated with IVT RNA", "format": "cell-based, human", "conditions": "0.5 μM to 2 μM", "experimental": "Human primary CD4 and CD 8 positive T-cells, as well as immature dendritic cells (iDCs) were isolated and electroporated with 5 μg IVT RNA encoding for destabilized GFP. iDCs were coelectroporated with 1 μg IVT RNA encoding for firefly luciferase. The cells were either left untreated or incubated with increasing amounts of C13H8N4OS (PKR-inhibitor) ranging from 0.5 μM to 2 μM as indicated in the panel legends. (A) T-cells and (B) iDCs were harvested at the indicated time points and GFP expression was assessed by flow cytometry. The mean fluorescence intensity (MFI) of the transfected, GFP-positive cell fractions is shown. (C) For luciferase assays, iDCs were plated in duplicates into 96-well-plates at a density of 10000 cells/well. Luciferase activity was measured at the indicated time points. Mean values of the duplicates are given.\n(§1) For quantification of d2eGFP and eGFP protein, cells were washed in PBS, fixed using PBS supplemented with 2% formaldehyde and analyzed by flow cytometry on a FACS Canto II flow cytometer (BD Biosciences, Heidelberg, Germany). Gating was performed on living cells and mean fluorescence intensity (MFI) of GFP expressing cell populations was quantified using FlowJo software (Tree Star, Ashland, Oreg., USA). […] Gating was performed on living CD4+ and CD8+ T-cells and GFP expression and MFI of both T-cell subpopulations was determined by flow cytometry. […]"}, "[3]": {"test_system": "Primary human foreskin fibroblasts (BJ, CCD1079Sk, HFF)", "format": "cell-based", "conditions": "for luciferase expression after transient treatment: BJ and CCD1079SK"}, "CCD1079SK fibroblasts": {"test_system": "CCD1079SK fibroblasts", "test": "Induction of pluripotency marker genes (qRT-PCR)", "format": "cell-based, human", "conditions": "2 μM, 72 h after electroporation", "experimental": "CCD1079SK fibroblasts were either mock electroporated or electroporated with IVT RNA encoding for firefly luciferase (1 μg), eGFP (1.25 μg), SV40 Large T (1.25 μg), HPV16-E6 (1.25 μg), OCT4, SOX2, KLF4, cMYC, NANOG and LIN28 (2.5 μg OCT4 and equimolar amounts for the others). Electroporations were performed in 2 mm gap cuvettes using optimized parameters for CCDs. The cells were plated into 6-well-plates at a density of 250000 cells/well and either left untreated or incubated with 2 μM C13H8N4OS as indicated. […] GDF3 and hTERT induction was increased by the treatment 72 h after electroporation.\nTotal cellular RNA was extracted from cells with RNeasy Mini Kit or RNeasy Micro Kit (Qiagen, Hilden, Germany), reverse transcribed with oligo-dT18 using Superscript II (Invitrogen, Carlsbad, Calif., USA), and subjected to real-time quantitative analysis on ABI PRISM 7700 Sequence Detection System instrument and software (Applied Biosystems, Foster City, Calif., USA) using the QuantiTect SYBR Green PCR Kit (Qiagen). Reactions were performed in triplicates with primer amplifying a specific region of the codon optimized\nA direct consequence of reprogramming transcription factor expression is the induction of pluripotency marker genes at the transcriptional level. […]"}, "[4]": {"test_system": "Primary human foreskin fibroblasts (HFF)", "format": "cell-based", "conditions": "24 h supernatants"}, "MEFs": {"test_system": "MEFs", "test": "GFP expression by flow cytometry (MFI) in murine fibroblasts electroporated with IVT RNA", "format": "cell-based", "conditions": "0.5 μM to 2 μM, mouse fibroblasts", "experimental": "(AB) Primary human foreskin fibroblasts from different donors and suppliers (panel A: BJ fibroblasts; panel B CCD1079Sk) and (C) MEFs were electroporated with 0.5 μg IVT RNA encoding for firefly luciferase and 1.25 μg IVT RNA encoding for enhanced GFP (eGFP). The cells were plated into […] at a density of 250000 cells/well. The cells were either left untreated or incubated with increasing amounts of C13H8N4OS (PKR-inhibitor) ranging from 0.5 μM to 2 μM as indicated in the panel legends. GFP expression was measured by flow cytometry at the indicated time points. The mean fluorescence intensity (MFI) of the transfected GFP-positive cell fractions is shown.\nTransfer of IVT-RNA into cells was performed by electroporation (EP). […]\nas §1"}}, "note": "Read-outs that look alike come from different tables or passages of the source.", "data": [{"compound": "O=C1Nc2ccc3ncsc3c2/C1=C/c1c[nH]cn1", "note": "[C13H8N4OS, 6,8-dihydro-8-(1H-imidazol-5-ylmethylene)-7H-pyrrolo[2,3-g]benzothiazol-7-one]", "values": [{"measurement": "luciferase expression", "setting": "[1]", "result": "loss of luciferase expression"}, {"measurement": "GFP expression (MFI)", "setting": "[2]", "result": "Neither in T-cells nor in iDCs PKR inhibition led to an increased GFP expression"}, {"measurement": "luciferase expression", "setting": "[3]; 0.5 μM to 2 μM, human fibroblasts, after electroporation", "result": "dose dependent increase"}, {"measurement": "luciferase expression on additional application of inhibitor", "setting": "[3]; 2 μM C13H8N4OS on CCD1079SK cotransfected with E3/K3, vs untreated controls", "result": "additive increase of luciferase expression and a stabilization"}, {"measurement": "luciferase expression after transient treatment", "setting": "[3]; 2 μM, 7 h incubation period", "result": "did not results in a significant increase of luciferase expression"}, {"measurement": "luciferase expression after transient treatment", "setting": "[3]; 2 μM, 24 h treatment", "result": "rapidly reversed after removal of the inhibitors"}, {"measurement": "luciferase expression after transient treatment", "setting": "[3]; 2 μM, 48 h treatment", "result": "less efficient than a permanent treatment"}, {"measurement": "luciferase expression from modified (5mC and PU) IVT RNA", "setting": "[3]; 2 μM, CCD1079Sk, 7 h to 72 h", "result": "further increases and stabilizes"}, {"measurement": "luciferase expression from unmodified IVT-RNA", "setting": "[3]; 2 μM, CCD1079Sk, 7 h to 72 h", "result": "greatly enhanced and stabilized"}, {"measurement": "duration of high luciferase expression levels", "setting": "[3]; 2 μM, permanent inhibition", "result": 5, "unit": "days"}, {"measurement": "stabilization of luciferase expression", "setting": "[3]; highest concentration used (2 μM)", "result": "high level of stabilization"}, {"measurement": "GDF3 induction (qRT-PCR)", "setting": "CCD1079SK fibroblasts", "result": "increased"}, {"measurement": "hTERT induction (qRT-PCR)", "setting": "CCD1079SK fibroblasts", "result": "increased"}, {"measurement": "secretion of IFNβ", "setting": "[4]; 2 μM C13H8N4OS, HFF electroporated with eGFP IVT RNA", "result": "remarkably enhanced"}, {"measurement": "secretion of IFNα", "setting": "[4]; HFF, with or without 2 μM C13H8N4OS", "result": "not observed"}, {"measurement": "GFP expression (MFI)", "setting": "MEFs", "result": "dose dependent increase"}]}]}
